Non-standard residues stand in square brackets, D forms with d. Primed or numbered codes have the meaning given here. No end group written: not given here. Ida = iminodiacetic acid linker, its two carboxyls bind the Lys side-chain amines of two peptides, giving a homodimer; Ida(3) = iminodiacetic acid linker, Lys side-chain amines bound to its two carboxyl groups; Ida(4) = iminodiacetic acid linker (dimerization linker bound to lysine side chain); Ida″ = iminodiacetic acid linker bound to the Lys side-chain amine, forming a dimer; Dip = N[C@H](C(=O)O)C(c1ccccc1)c1ccccc1
Test system: HUVECs
Assay type: cell-based
Details: 48 h
Procedure, shortened: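 HUVECs seeded at 5,000 cells/well in EBM with 2% FCS, adhered ≥12 hours, then stimulated with bFGF 10 ng/ml or VEGF 5 ng/ml plus varying peptide concentrations. After 48 hours at 37 ° C, 5% CO2, proliferation inhibition read by BrdU incorporation.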

Compound	IC50 [µM]
CC[C@H](C)[C@H](NC(=O)[C@H](CCCNC(=N)N)NC(=O)[C@@H](NC(=O)[C@H](CCCNC(=N)N)NC(=O)[C@H](CCC(N)=O)NC(=O)[C@H](CCCNC(=N)N)NC(=O)[C@H](CCCNC(=N)N)NC(=O)[C@H](CCCNC(=N)N)NC(=O)[C@H](CCCNC(=N)N)NC(=O)[C@H](CCCNC(=N)N)NC(C)=O)C(C)C)C(=O)N[C@H](C(=O)N[C@@H](Cc1ccccc1)C(=O)N[C@@H](CCCCNC(=O)CN(CC(=O)NCCCC[C@H](NC(=O)[C@H](Cc1ccccc1)NC(=O)[C@@H](NC(=O)[C@@H](NC(=O)[C@H](CCCNC(=N)N)NC(=O)[C@@H](NC(=O)[C@H](CCCNC(=N)N)NC(=O)[C@H](CCC(N)=O)NC(=O)[C@H](CCCNC(=N)N)NC(=O)[C@H](CCCNC(=N)N)NC(=O)[C@H](CCCNC(=N)N)NC(=O)[C@H](CCCNC(=N)N)NC(=O)[C@H](CCCNC(=N)N)NC(C)=O)C(C)C)[C@@H](C)CC)[C@@H](C)CC)C(N)=O)C(=O)CCNC(=O)OC(C)(C)C)C(N)=O)[C@@H](C)CC [Peptide 167]	< 10
CC[C@H](C)[C@H](NC(=O)[C@H](C)NC(=O)[C@@H](NC(=O)[C@H](C)NC(=O)[C@H](CCC(N)=O)NC(=O)[C@H](CCCNC(=N)N)NC(=O)[C@H](CCCNC(=N)N)NC(=O)[C@H](CCCNC(=N)N)NC(=O)[C@H](C)NC(=O)[C@H](CCCNC(=N)N)NC(C)=O)C(C)C)C(=O)N[C@@H](CC(N)=O)C(=O)N[C@@H](Cc1ccccc1)C(=O)N[C@@H](CCCCNC(=O)CN(CC(=O)NCCCC[C@H](NC(=O)[C@H](Cc1ccccc1)NC(=O)[C@H](CC(N)=O)NC(=O)[C@@H](NC(=O)[C@H](C)NC(=O)[C@@H](NC(=O)[C@H](C)NC(=O)[C@H](CCC(N)=O)NC(=O)[C@H](CCCNC(=N)N)NC(=O)[C@H](CCCNC(=N)N)NC(=O)[C@H](CCCNC(=N)N)NC(=O)[C@H](C)NC(=O)[C@H](CCCNC(=N)N)NC(C)=O)C(C)C)[C@@H](C)CC)C(N)=O)C(=O)CCNC(=O)OC(C)(C)C)C(N)=O [Peptide 272]	< 10

Same assay, conditions: HUVEC proliferation, bFGF at 10 ng/ml or VEGF at 5 ng/ml, 48 hours, BrdU incorporation; read-out: IC50 on HUVECs

Compound	IC50 [µM]
472 (Ac-PRRRGQAVAIYFK(Ida(3)); not fully specified (C-terminus); also: homodimer via Ida linker on Lys13 side chain) [compound 472]	> 30
328 (XRHRRQHVRIYFK; not fully specified; Xaa = Acylated Histidine; The side chain of Lysine at position 13 is covalently bound to an Ida linker forming a homodimer of residues 1 through 13.) [compound 328]	< 10
360 (Ac-RRRHRQHVHIYFK(Ida(3))-NH2; also: homodimer via Ida linker on Lys13 side chain, Boc on Ida amine) [compound 360]	< 10
276 (XRRRRQHVRIYFK; not fully specified; Xaa = Acylated Histidine; The side chain of Lysine at position 13 is covalently bound to an Ida linker forming a homodimer of residues 1 through 13.) [compound 276]	< 10
303 (Ac-RRRRRQAVRIQIQFK(Ida)-NH2; also: homodimer via Ida linker on Lys15 side chain) [compound 303]	< 10
193 (Ac-ARRARQRVRIIF; also: dimer: C-terminal Phe bound to an amino group of a Lys linker, 2 chains per Lys) [compound 193]	< 10
268 (Ac-ARRRRQRVAIPFK-NH2; not fully specified (residue 13); also: homodimer: side chain of Lys13 bound to an Ida linker) [compound 268]	> 30
220 (Ac-RRRARQAVAIIF; also: dimer: Phe C-termini joined via Lys linker) [compound 220]	< 10
286 (Ac-RRRRAQHVHIYFK-NH2; not fully specified (residue 13); also: homodimer via Ida linker on Lys13 side chain) [compound 286]	< 10
KKKKKMPKLRFASRIRKIRKKQF [compound 71]	10 to 30
RKRKKQRVKIIFV [compound 90]	10 to 30
431 (Ac-ARRRRQAVAIYK(Ida(4))F; also: homodimer via Ida linker at K12) [compound 431]	< 10
170 (Ac-RRRRRQRVRIIFK; also: homodimer via Ida-PEG 20 kDa linker on Lys13 side chains) [compound 170]	< 10
444 (Ac-RRRRYQAVAIYFK(Ida(4)); not fully specified (C-terminus); also: homodimer via Ida linker at K13) [compound 444]	< 10
491 (Ac-PRRRRQPVAIK(Ida″)F; also: homodimer via Ida linker on Lys11 side chain) [compound 491]	10 to 30
KTKRKRVKIAYEEIFVQNM [compound 52]	> 30
196 (Ac-ARRRRQRVAIIF; also: dimer: C-terminal Phe bound to an amino group of a Lys linker, 2 chains per Lys) [compound 196]	< 10
438 (Ac-RRRRNQAVAIYFK(Ida(4)); not fully specified (C-terminus); also: homodimer via Ida linker at K13) [compound 438]	< 10
TKRKRKKQRVKIIFV [compound 86]	10 to 30
407 (Ac-NRRRRQAVAIYFK; not fully specified (residue 13, C-terminus); also: homodimer via Ida linker on Lys side chains, linker at 13 via Ida, other end not in the chain) [compound 407]	< 10

Compound	IC50 [µM]
394 (Ac-ARRRRQAVSIYFK; not fully specified (residue 13, C-terminus); also: homodimer of residues 1-13 via Ida linker at Lys13 side chain) [compound 394]	< 10
509 (Ac-ARRRRARVAIYFK; not fully specified (C-terminus); also: homodimer via Ida linker at Lys13 side chain) [compound 509]	< 10
184 (XRRRRQRVRIIF; Xaa = Acylated Histidine; Dimeric peptide wherein the C terminus of Phe in position 12 of one peptide chain is covalently bound to one of the amino groups of a Lysine linker and Phe of the remaining peptide chain is covalently bound to the other amino group of the Lysine linker.) [compound 184]	< 10
393 (Ac-ARRRRQAVQIYFK; not fully specified (residue 13, C-terminus); also: homodimer of residues 1-13 via Ida linker at Lys13 side chain) [compound 393]	< 10
383 (Ac-ARRRRQFVAIYFK-NH2; not fully specified (residue 13); also: homodimer via Ida linker on Lys13 side chain, Ida amine Boc) [compound 383]	< 10
483 (Ac-QRRRRQAVAIKF; not fully specified (residue 11); also: homodimer via Ida linker on Lys11 side chain) [compound 483]	< 10
350 (Ac-ARRRRQRVAIY[Dip]K-NH2; not fully specified (residue 13); also: homodimer of residues 1-13 via Ida linker on K13 side chain) [compound 350]	< 10
460 (Ac-ARRK(Ida(3))RQAVAIYF; also: homodimer via Ida linker on Lys side chains, linker at 4 via Ida, other end not in the chain) [compound 460]	10 to 30
419 (Ac-ARRRRQQVAIYFK; not fully specified (residue 13, C-terminus); also: homodimer of residues 1-13 via Ida linker on K13 side chain) [compound 419]	< 10
322 (XRRRRQHVHIYFK; Xaa = Acylated Histidine; The side chain of Lysine at position 13 is covalently bound to an Ida linker forming a homodimer of residues 1 through 13.) [compound 322]	< 10
211 (Ac-RRRRRQAVAIIF; also: dimer: Phe C-termini joined via Lys linker) [compound 211]	< 10
433 (Ac-RRRREQAVAIYFK(Ida(4)); not fully specified (C-terminus); also: homodimer via Ida linker at K13) [compound 433]	10 to 30
424 (Ac-ARRRRQWVAIYFK; not fully specified (residue 13, C-terminus); also: homodimer of residues 1-13 via Ida linker on K13 side chain) [compound 424]	< 10
248 (Ac-RRRRRQHVHIIF; also: homodimer: C-termini of two chains bound to the two amines of a Lys linker) [compound 248]	< 10
RKRKKQRVKIIF [compound 82]	> 30
KTKRKRKKQRVKAIFVQNM [compound 111]	10 to 30
370 (Ac-ARRRRQRVAFYFK-NH2; not fully specified (residue 13); also: homodimer via Ida linker on Lys13 side chain, Boc on Ida amine) [compound 370]	< 10
283 (Ac-RRRRAQAVHIYFK-NH2; not fully specified (residue 13); also: homodimer: Lys13 side chain bound to Ida linker) [compound 283]	< 10
511 (Ac-ARRRRFRVAIYFK; not fully specified (C-terminus); also: homodimer via Ida linker at Lys13 side chain) [compound 511]	10 to 30

Reference: patent publication US20070203066A1, “Compositions and methods for inhibiting cellular proliferation” (priority 2005, published 2007)
